Measured values published in US7125878B2, “Substituted pyrroline kinase inhibitors” (Janssen Pharmaceutica, priority 2002, dated 2006).
Several values for one entry are separate records, joined by “and”; a condition that tells them apart may be missing. Identical values can stand only once.

What follows are compounds tested against T1, recombinant rabbit GSK-3β protein (Oryctolagus cuniculus, UniProt G1T8E2) (assay: Glycogen Synthase Kinase-3 Assay (33P phosphorylation of PPI-2)). Details: @100 nM.
T1 construct: purchased New England Biolabs
T1 sequence (G1T8E2 1-432): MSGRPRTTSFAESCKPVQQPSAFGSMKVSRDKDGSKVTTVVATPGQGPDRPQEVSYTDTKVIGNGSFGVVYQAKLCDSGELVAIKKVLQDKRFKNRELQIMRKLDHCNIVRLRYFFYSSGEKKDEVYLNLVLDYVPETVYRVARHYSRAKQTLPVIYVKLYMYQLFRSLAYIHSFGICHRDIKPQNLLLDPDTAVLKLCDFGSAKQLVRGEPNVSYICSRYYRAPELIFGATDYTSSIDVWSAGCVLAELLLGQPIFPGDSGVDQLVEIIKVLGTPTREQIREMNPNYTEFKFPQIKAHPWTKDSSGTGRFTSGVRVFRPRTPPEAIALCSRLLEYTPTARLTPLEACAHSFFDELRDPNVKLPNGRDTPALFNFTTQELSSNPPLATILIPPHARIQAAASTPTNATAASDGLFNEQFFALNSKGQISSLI
Assay type: biochemical
Method: Glycogen Synthase Kinase-3 Assay
Compounds were tested for the ability to inhibit recombinant rabbit GSK-3β protein using the following protocol. The test compound was added to a reaction mixture containing Protein Phosphatase Inhibitor-2 (PPI-2) (Calbiochem) (45 ng), rabbit GSK-3β protein (New England Biolabs) (0.75 units) and ^33P-ATP (1 μCi) in 50 mM Tris-HCl (pH 8.0), 10 mM MgCl2, 0.1% BSA, 1 mM DTT and 100 μM Sodium Vanadate. The mixture was reacted for 90 minutes at 30° C. to allow phosphorylation of the PPI-2 protein and then the protein in the reaction was precipitated using 10% TCA. The precipitated protein was collected on filter plates (MultiScreen-DV/Millipore), which were subsequently washed. Finally, the radioactivity was quantified using a TopCount Scintillation Counter (Packard). […] Staurosporine or Valproate, known inhibitors of GSK-3β, were used as a positive control for screening.

inhibition at 0.1 µM [%]	Structure (SMILES)
56	O=C1NC(=O)C(c2cn(CCCO)c3ncccc23)=C1c1n[nH]c2ccccc12 [Cpd 6, 3-[1-(3-hydroxypropyl)-1H-pyrrolo[2,3-b]pyridin-3-yl]-4-(1H-indazol-3-yl)-1H-pyrrole-2,5-dione]

Same assay, conditions: @200 nM

inhibition at 0.2 µM [%]	Structure (SMILES)
29	O=C1NC(=O)C(c2cn(CCCO)c3ncccc23)=C1c1cn(CCCO)cn1 [Cpd 18, 3-[1-(3-hydroxypropyl)-1H-imidazol-4-yl]-4-[1-(3-hydroxypropyl)-1H-pyrrolo[2,3-b]pyridin-3-yl]-1H-pyrrole-2,5-dione]

Same assay, conditions: @1 μM; two numbers = different days

inhibition at 1 µM [%]	Structure (SMILES)
39	COc1ncc(C2=C(c3cn(CCCc4cccs4)c4ncccc34)C(=O)NC2=O)c(OC)n1 [Cpd 74, 3-(2,4-Dimethoxy-pyrimidin-5-yl)-4-[1-(3-thiophen-2-yl-propyl)-1H-pyrrolo[2,3-b]pyridin-3-yl]-pyrrole-2,5-dione]
23	O=C1NC(=O)C(c2cn(CCCO)c3ncccc23)=C1c1ncccn1 [Cpd 56, 3-[1-(3-Hydroxy-propyl)-1H-pyrrolo[2,3-b]pyridin-3-yl]-4-pyrimidin-2-yl-pyrrole-2,5-dione]
32	Cc1noc(C)c1C1=C(c2cn(CCCO)c3ncccc23)C(=O)NC1=O [Cpd 44, 3-(3,5-Dimethyl-isoxazol-4-yl)-4-[1-(3-hydroxy-propyl)-1H-pyrrolo[2,3-b]pyridin-3-yl]-pyrrole-2,5-dione]

Same assay, conditions: two numbers = data obtained on different days

Structure (SMILES)	IC50
O=C1NC(=O)C(c2cccc3cccnc23)=C1c1cn(CCCO)c2ncccc12 [Cpd 42, 3-[1-(3-Hydroxy-propyl)-1H-pyrrolo[2,3-b]pyridin-3-yl]-4-quinolin-8-yl-pyrrole-2,5-dione]	123 nM and 106 nM
O=C1NC(=O)C(c2cn(CCCc3ccccc3)c3ncccc23)=C1c1cncnc1 [Cpd 58, 3-[1-(3-Phenyl-propyl)-1H-pyrrolo[2,3-b]pyridin-3-yl]-4-pyrimidin-5-yl-pyrrole-2,5-dione]	366 nM and 344 nM
O=C1NC(=O)C(c2cn(CCCc3ccccc3)c3ncccc23)=C1C1=CCCCO1 [Cpd 61, 3-(5,6-Dihydro-4H-pyran-2-yl)-4-[1-(3-phenyl-propyl)-1H-pyrrolo[2,3-b]pyridin-3-yl]-pyrrole-2,5-dione]	714 nM and 635 nM
O=C1NC(=O)C(c2cn(CCCO)c3ncccc23)=C1c1ncc(C(F)(F)F)cc1Cl [Cpd 13, 3-[3-chloro-5-(trifluoromethyl)-2-pyridinyl]-4-[1-(3-hydroxypropyl)-1H-pyrrolo[2,3-b]pyridin-3-yl]-1H-pyrrole-2,5-dione]	36 nM
O=C1NC(=O)C(c2cn(CCCO)c3ncccc23)=C1c1cccoc1=O [Cpd 45, 3-[1-(3-Hydroxy-propyl)-1H-pyrrolo[2,3-b]pyridin-3-yl]-4-(2-oxo-2H-pyran-3-yl)-pyrrole-2,5-dione]	28 nM and 18 nM
O=C1NC(=O)C(c2cn(CCCc3ccccc3)c3ncccc23)=C1c1cc2n(n1)CCC2 [Cpd 59, 3-(5,6-Dihydro-4H-pyrrolo[1,2-b]pyrazol-2-yl)-4-[1-(3-phenyl-propyl)-1H-pyrrolo[2,3-b]pyridin-3-yl]-pyrrole-2,5-dione]	519 nM and 424 nM
O=C1NC(=O)C(c2cn(CCCO)c3ncccc23)=C1c1cc2ccccc2s1 [Cpd 43, 3-Benzo[b]thiophen-2-yl-4-[1-(3-hydroxy-propyl)-1H-pyrrolo[2,3-b]pyridin-3-yl]-pyrrole-2,5-dione]	198 nM and 126 nM
O=C1NC(=O)C(c2cn(CCCO)c3ncccc23)=C1c1cc2n(n1)CCC2 [Cpd 50, 3-(5,6-Dihydro-4H-pyrrolo[1,2-b]pyrazol-2-yl)-4-[1-(3-hydroxy-propyl)-1H-pyrrolo[2,3-b]pyridin-3-yl]-pyrrole-2,5-dione]	88 nM and 107 nM
O=C1NC(=O)C(c2cn(CCCO)c3ncccc23)=C1c1ccc(O)c(O)c1 [Cpd 32, 3-(3,4-dihydroxyphenyl)-4-[1-(3-hydroxypropyl)-1H-pyrrolo[2,3-b]pyridin-3-yl]-1H-pyrrole-2,5-dione]	67 nM and 95 nM
O=C1NC(=O)C(c2cn(CCCO)c3ncccc23)=C1c1cc2ccccc2o1 [Cpd 25, 3-(2-benzofuranyl)-4-[1-(3-hydroxypropyl)-1H-pyrrolo[2,3-b]pyridin-3-yl]-1H-pyrrole-2,5-dione]	71 nM and 44 nM
COc1ncc(C2=C(c3cn(CCCOc4ccccc4)c4ncccc34)C(=O)NC2=O)c(OC)n1 [Cpd 76, 3-(2,4-Dimethoxy-pyrimidin-5-yl)-4-[1-(3-phenoxy-propyl)-1H-pyrrolo[2,3-b]pyridin-3-yl]-pyrrole-2,5-dione]	43 nM and 59 nM
O=C1NC(=O)C(c2cn(CCCO)c3ncccc23)=C1c1cnc(-c2ccccc2)o1 [Cpd 49, 3-[1-(3-Hydroxy-propyl)-1H-pyrrolo[2,3-b]pyridin-3-yl]-4-(2-phenyl-oxazol-5-yl)-pyrrole-2,5-dione]	56 nM and 58 nM
COc1ncc(C2=C(c3cn(CCOc4ccc(F)cc4)c4ncccc34)C(=O)NC2=O)c(OC)n1 [Cpd 75, 3-(2,4-Dimethoxy-pyrimidin-5-yl)-4-{1-[2-(4-fluoro-phenoxy)-ethyl]-1H-pyrrolo[2,3-b]pyridin-3-yl}-pyrrole-2,5-dione]	240 nM
COc1ncc(C2=C(c3cn(CCCc4ccccc4)c4ncccc34)C(=O)NC2=O)c(OC)n1 [Cpd 57, 3-(2,4-Dimethoxy-pyrimidin-5-yl)-4-[1-(3-phenyl-propyl)-1H-pyrrolo[2,3-b]pyridin-3-yl]-pyrrole-2,5-dione]	15 nM and 10 nM
COCCn1cc(C2=C(c3cnc(OC)nc3OC)C(=O)NC2=O)c2cccnc21 [Cpd 71, 3-(2,4-Dimethoxy-pyrimidin-5-yl)-4-[1-(2-methoxy-ethyl)-1H-pyrrolo[2,3-b]pyridin-3-yl]-pyrrole-2,5-dione]	360 nM
O=C1NC(=O)C(c2cn(CCCOc3ccccc3)c3ncccc23)=C1c1cc2n(n1)CCC2 [Cpd 65, 3-(5,6-Dihydro-4H-pyrrolo[1,2-b]pyrazol-2-yl)-4-[1-(3-phenoxy-propyl)-1H-pyrrolo[2,3-b]pyridin-3-yl]-pyrrole-2,5-dione]	188 nM and 244 nM
N#CCCCn1cc(C2=C(c3cnccn3)C(=O)NC2=O)c2cccnc21 [Cpd 63, 4-[3-(2,5-Dioxo-4-pyrazin-2-yl-2,5-dihydro-1H-pyrrol-3-yl)-pyrrolo[2,3-b]pyridin-1-yl]-butyronitrile]	77 nM and 102 nM
Cn1ccc(C2=C(c3cn(CCCC#N)c4ncccc34)C(=O)NC2=O)n1 [Cpd 64, 4-{3-[4-(1-Methyl-1H-pyrazol-3-yl)-2,5-dioxo-2,5-dihydro-1H-pyrrol-3-yl]-pyrrolo[2,3-b]pyridin-1-yl}-butyronitrile]	77 nM and 128 nM

Further lines, results first:

IC50	Structure (SMILES)
100 nM	O=C1NC(=O)C(c2cn(CCCO)c3ncccc23)=C1c1ccn(CCCO)n1 [Cpd 16, 3-[1-(3-hydroxypropyl)-1H-pyrazol-3-yl]-4-[1-(3-hydroxypropyl)-1H-pyrrolo[2,3-b]pyridin-3-yl]-1H-pyrrole-2,5-dione]
37 nM and 42 nM	O=C1NC(=O)C(c2cn(CCCO)c3ncccc23)=C1c1cncnc1 [Cpd 41, 3-[1-(3-Hydroxy-propyl)-1H-pyrrolo[2,3-b]pyridin-3-yl]-4-pyrimidin-5-yl-pyrrole-2,5-dione]
480 nM and 660 nM	Cn1nccc1C1=C(c2cn(CCCO)c3ncccc23)C(=O)NC1=O [Cpd 66, 3-[1-(3-Hydroxy-propyl)-1H-pyrrolo[2,3-b]pyridin-3-yl]-4-(2-methyl-2H-pyrazol-3-yl)-pyrrole-2,5-dione]
38 nM and 37 nM	Cn1ccc(C2=C(c3cn(CCCO)c4ncccc34)C(=O)NC2=O)c1 [Cpd 46, 4-[1-(3-Hydroxy-propyl)-1H-pyrrolo[2,3-b]pyridin-3-yl]-1′-methyl-1′H-[3,3′]bipyrrolyl-2,5-dione]
158 nM and 51 nM	O=C1NC(=O)C(c2cn(CCCO)c3ncccc23)=C1C1=CCCCO1 [Cpd 23, 3-(3,4-dihydro-2H-pyran-6-yl)-4-[1-(3-hydroxypropyl)-1H-pyrrolo[2,3-b]pyridin-3-yl]-1H-pyrrole-2,5-dione]
150 nM and 187 nM	O=C1NC(=O)C(c2cn(CCCO)c3ncccc23)=C1C1=COCCO1 [Cpd 51, 3-(5,6-Dihydro-[1,4]dioxin-2-yl)-4-[1-(3-hydroxy-propyl)-1H-pyrrolo[2,3-b]pyridin-3-yl]-pyrrole-2,5-dione]
6 nM	O=C1NC(=O)C(c2cn(CCCO)c3ncccc23)=C1c1cc(Cl)sc1Cl [Cpd 15, 3-(2,5-dichloro-3-thienyl)-4-[1-(3-hydroxypropyl)-1H-pyrrolo[2,3-b]pyridin-3-yl]-1H-pyrrole-2,5-dione]
380 nM	CCCCC1=C(c2cn(CCCO)c3ncccc23)C(=O)NC1=O [Cpd 70, 3-Butyl-4-[1-(3-hydroxy-propyl)-1H-pyrrolo[2,3-b]pyridin-3-yl]-pyrrole-2,5-dione]
70 nM and 120 nM	Cn1ccc(C2=C(c3cn(CCCO)c4ncccc34)C(=O)NC2=O)n1 [Cpd 26, 3-[1-(3-hydroxypropyl)-1H-pyrrolo[2,3-b]pyridin-3-yl]-4-(1-methyl-1H-pyrazol-3-yl)-1H-pyrrole-2,5-dione]
15 nM and 8 nM	O=C1NC(=O)C(c2cn(CCCO)c3ncccc23)=C1c1cc[nH]c1 [Cpd 24, 4-[1-(3-hydroxypropyl)-1H-pyrrolo[2,3-b]pyridin-3-yl]-[3,3′-bi-1H-pyrrole]-2,5-dione]
140 nM and 59 nM	O=C1NC(=O)C(c2cn(CCCO)c3ncccc23)=C1c1ccoc1 [Cpd 67, 3-Furan-3-yl-4-[1-(3-hydroxy-propyl)-1H-pyrrolo[2,3-b]pyridin-3-yl]-pyrrole-2,5-dione]
6 nM	O=C1NC(=O)C(c2cn(CCCO)c3ncccc23)=C1c1cccs1 [Cpd 14, 3-[1-(3-hydroxypropyl)-1H-pyrrolo[2,3-b]pyridin-3-yl]-4-(2-thienyl)-1H-pyrrole-2,5-dione]
